Assay results reported in article PMC5626031, “Differential inhibition of adenylylated and deadenylylated forms of M. tuberculosis glutamine synthetase as a drug discovery platform” (PLoS ONE, 2017).
Where “and” joins values, the source holds several entries; their conditions need not be identical. Equal values may be shown once. Entries after “also recorded” stand apart in the source; their conditions may differ. Read-outs that look alike come from different tables or passages of the source.

What was measured:
[1] = tested on: M.tb H37Rv reference strain; test: BACTEC 460TB assay of mycobacterial growth; assay type: cell-based, Mycobacterium tuberculosis; conditions: for Growth inhibition of M.tb H37Rv (percentage of growth index): 100 μM, day 6 of incubation, relative to control cultures; for Activity against M.tb H37Rv, in words: 100 μM final concentration
[2] = tested on: M.tb (Beijing220) in mouse bone-marrow derived macrophages; test: Intracellular M.tb in mouse bone-marrow derived macrophage assay; assay type: cell-based, Mycobacterium tuberculosis; conditions: for Activity against intracellular M.tb (Beijing220), in words / Percentage killing of intracellular M.tb (Beijing220), Fig 7: 100 μM; for Activity against intracellular M.tb (Beijing220), in words: Fig 7; for Percentage killing of intracellular M.tb (Beijing220), Fig 7: MOI 2:1, drug on day 4 post infection, harvest day 2 post drug, first experiment (8 selective compounds)
[3] = molecular target: T1, deadenylylated MtbGS (Mycobacterium tuberculosis, UniProt P9WN39); test: biochemical; design: species or system M. tuberculosis; conditions: for inhibition at 10 µM: 10μM final concentration
T1 construct: made in house; host or cells: E. coli YMC11E with pTBSK
T1 sequence (P9WN39 2-478 limits assumed): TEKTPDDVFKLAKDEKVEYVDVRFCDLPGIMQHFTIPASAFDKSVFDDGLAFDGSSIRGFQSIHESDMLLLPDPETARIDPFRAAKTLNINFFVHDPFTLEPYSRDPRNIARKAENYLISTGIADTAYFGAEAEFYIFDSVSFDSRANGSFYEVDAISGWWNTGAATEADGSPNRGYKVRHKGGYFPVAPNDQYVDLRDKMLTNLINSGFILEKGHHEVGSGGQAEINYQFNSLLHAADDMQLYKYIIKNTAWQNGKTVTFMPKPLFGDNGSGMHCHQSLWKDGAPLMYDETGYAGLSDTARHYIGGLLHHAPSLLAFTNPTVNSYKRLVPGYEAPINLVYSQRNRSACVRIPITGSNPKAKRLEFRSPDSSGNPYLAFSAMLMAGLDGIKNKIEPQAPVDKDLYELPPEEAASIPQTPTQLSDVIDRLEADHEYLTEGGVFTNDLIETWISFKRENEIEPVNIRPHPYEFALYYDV

[4] = molecular target: T2, adenylylated MtbGS (Mycobacterium tuberculosis, UniProt P9WN39); test: biochemical; assay type: biochemical, M. tuberculosis; conditions: for inhibition at 10 µM: 10μM final concentration; for Selectivity for adenylylated vs deadenylylated MtbGS: from % inhibition at 10μM of both enzyme forms
T2 construct: made in house; host or cells: E. coli YMC11E(DE3) with pTBSK and pTBglnE
T2 sequence (P9WN39 2-478 limits assumed): as above

[5] = tested on: M.tb (Beijing220) clinical isolate; conditions: cited from earlier work
[6] = tested on: M.tb H37Rv reference strain (ATCC 25618); design: method as in PMID 9145860; conditions: approximately 10x higher than the minimal inhibitory concentrations; cited from earlier work
[7] = tested on: M. tuberculosis; conditions: both in vitro and in vivo; cited from earlier work
[8] = pre-incubation protocol, average over the 4 screens, read-out: Deadenylated Mtb GS (% inhibition) AVG
[9] = pre-incubation protocol, screen 1, read-out: Deadenylated Mtb GS (% inhibition) Screen 1
[10] = pre-incubation protocol, screen 2, read-out: Deadenylated Mtb GS (% inhibition) Screen 2
[11] = pre-incubation protocol, screen 3, read-out: Deadenylated Mtb GS (% inhibition) Screen 3
[12] = pre-incubation protocol, screen 4, read-out: Deadenylated Mtb GS (% inhibition) Screen 4
[13] = pre-incubation protocol, average over the 4 screens, read-out: Adenylated Mtb GS (% inhibition) AVG
[14] = pre-incubation protocol, screen 1, read-out: Adenylated Mtb GS (% inhibition) Screen 1
[15] = pre-incubation protocol, screen 2, read-out: Adenylated Mtb GS (% inhibition) Screen 2
[16] = pre-incubation protocol, screen 3, read-out: Adenylated Mtb GS (% inhibition) Screen 3
[17] = pre-incubation protocol, screen 4, read-out: Adenylated Mtb GS (% inhibition) Screen 4
[18] = dose-response assay, pre-incubation protocol, single assay values
[19] = dose-response assay, pre-incubation protocol, single assay values, read-out: IC50, adenylylated MtbGS
[20] = dose-response assay, enzyme form not given, read-out: IC50 concentration, MtbGS

Compound	inhibition at 10 µM [3, 8]	inhibition at 10 µM [3, 9]	inhibition at 10 µM [3, 10]	inhibition at 10 µM [3, 11]	inhibition at 10 µM [3, 12]	inhibition at 10 µM [4, 13]	inhibition at 10 µM [4, 14]	inhibition at 10 µM [4, 15]	inhibition at 10 µM [4, 16]	inhibition at 10 µM [4, 17]	Activity against M.tb H37Rv, in words [1]	also measured
O=NN(Cc1ccccc1)c1cc(N2CCCC2)ncn1 [Compound 5045]	48%	44%	45%	54%	48%	0%	0%	0%	0%	0%	–	Growth inhibition of M.tb H37Rv (percentage of growth index) [1]: 98%; Percentage killing of intracellular M.tb (Beijing220), Fig 8 ([2]; 100 μM for 2 days, second experiment at 10, 50 and 100 μM): 73%; Activity against intracellular M.tb (Beijing220), in words [2]: moderate activity; Percentage killing of intracellular M.tb (Beijing220), Fig 7 [2]: 64%; Selectivity for adenylylated vs deadenylylated MtbGS [4]: significant selectivity for the deadenylylated MtbGS; also recorded: deadenylylated selective; also recorded: specific to the de-adenylylated form of GS
NNC(=O)c1ccncc1 [isoniazid]	–	–	–	–	–	–	–	–	–	–	–	Susceptibility of the Beijing220 clinical isolate [5]: resistant; Breakpoint concentration to which the H37Rv strain was sensitive [6]: 0.25 µg/mL
CS(=N)(=O)CC[C@H](N)C(=O)O (stereo partly drawn) [MSO, L-methionine-S,R-sulphoximine, reference compound]	–	–	–	–	–	–	–	–	–	–	–	Deadenylated Mtb GS (% inhibition) AVG [3]: 100%; Deadenylated Mtb GS (% inhibition) Screen 1 [3]: 100%; Deadenylated Mtb GS (% inhibition) Screen 2 [3]: 100%; Deadenylated Mtb GS (% inhibition) Screen 3 [3]: 99%; Deadenylated Mtb GS (% inhibition) Screen 4 [3]: 100%; IC50 [3]: 1.6 µM; Growth of M. tuberculosis [7]: inhibits growth; Adenylated Mtb GS (% inhibition) AVG [4]: 99%; Adenylated Mtb GS (% inhibition) Screen 1 [4]: 100%; Adenylated Mtb GS (% inhibition) Screen 2 [4]: 100%; Adenylated Mtb GS (% inhibition) Screen 3 [4]: 96%; Adenylated Mtb GS (% inhibition) Screen 4 [4]: 100%; IC50 ([4]; read-out: IC50, adenylylated MtbGS): 0.16 µM
CO[C@H]1/C=C/O[C@@]2(C)Oc3c(C)c(O)c4c(O)c(c(/C=N/N5CCN(C)CC5)c(O)c4c3C2=O)NC(=O)/C(C)=C\C=C\[C@H](C)[C@H](O)[C@@H](C)[C@@H](O)[C@@H](C)[C@H](OC(C)=O)[C@@H]1C [rifampicin]	–	–	–	–	–	–	–	–	–	–	–	Susceptibility of the Beijing220 clinical isolate [5]: resistant; Breakpoint concentration to which the H37Rv strain was sensitive [6]: 2.0 µg/mL
Nc1nc(N)c(NC(=O)c2ccccc2)c(O)n1 [Compound 5009]	47%	57%	41%	44%	44%	40%	37%	50%	50%	22%	no activity	–
NC(CCS(=O)(=O)O)C(=O)O (stereo not shown) [Compound 5]	2%	0%	0%	6%	0%	38%	48%	33%	40%	29%	–	–
CP(=O)(O)CC[C@H](N)C(=O)O [PhosT, phosphinotricin, reference compound]	100%	100%	98%	100%	100%	98%	100%	95%	97%	100%	–	IC50 [3, 18]: 0.83 µM; IC50 [4, 19]: 0.016 µM
COc1ccc(-c2nc3ccccn3c2Nc2c(C)cccc2C)cc1OC [Compound 10059]	44%	49%	48%	36%	43%	91%	82%	99%	82%	100%	–	Activity against intracellular M.tb (Beijing220), in words [2]: moderate activity; Percentage killing of intracellular M.tb (Beijing220), Fig 7 [2]: 54%; IC50 [3, 18]: 13.2 µM and 17.1 µM; IC50 [4, 20]: < 100 µM; Selectivity for adenylylated vs deadenylylated MtbGS [4]: GS-adenylylated specific
Cc1nc(N)cc(C[n+]2csc(CCOP(=O)(O)O)c2C)n1 [Compound 5016]	11%	7%	19%	3%	13%	43%	51%	43%	46%	30%	no activity	–
CC[C@@H](CO)NCCN[C@@H](CC)CO [ethambutol]	–	–	–	–	–	–	–	–	–	–	–	Breakpoint concentration to which the H37Rv strain was sensitive [6]: 9.4 µg/mL
O=C1NC(C(=O)O)=C(C(=O)O)C(c2ccc([N+](=O)[O-])cc2)N1 (stereo not shown) [Compound 5012]	15%	14%	16%	4%	24%	40%	55%	31%	32%	42%	no activity	–
c1ccc(CNc2cc(N3CCCC3)ncn2)cc1 [Compound 5029]	7%	5%	8%	7%	9%	60%	79%	46%	56%	60%	–	Growth inhibition of M.tb H37Rv (percentage of growth index) [1]: 66%; Activity against intracellular M.tb (Beijing220), in words [2]: moderate activity; Percentage killing of intracellular M.tb (Beijing220), Fig 7 [2]: 67%; Selectivity for adenylylated vs deadenylylated MtbGS [4]: GS-adenylylated specific
Nc1nc(O)c2ccccc2n1 [Compound 12004]	42%	50%	43%	38%	38%	34%	39%	32%	33%	30%	no activity	–
Cc1cccc(C)c1Nc1c(C(C)C)nc2ccccn12 [Compound 10057]	59%	67%	62%	47%	58%	99%	100%	99%	98%	100%	–	Growth inhibition of M.tb H37Rv (percentage of growth index) [1]: 53%; Activity against intracellular M.tb (Beijing220), in words [2]: moderate activity; Percentage killing of intracellular M.tb (Beijing220), Fig 7 [2]: 65%; IC50 [4, 19]: 3.51 µM and 15.6 µM; IC50 [4, 20]: < 100 µM; Selectivity for adenylylated vs deadenylylated MtbGS [4]: GS-adenylylated specific
OCCNc1cc(N2CCCC2)ncn1 [Compound 5024]	47%	49%	44%	52%	44%	43%	46%	48%	43%	36%	no activity	–
O=C(O)c1ccncc1 [Compound 5002]	8%	0%	10%	8%	14%	45%	68%	40%	38%	35%	no activity	–
